Reference: patent US10906169B1, “Muscle-powered biological machines” (The Board of Trustees of the University of Illinois, priority 2016, dated 2021)
Entries after “also recorded” stand apart in the source; their conditions may differ.

Legend:
EBs containing MNs = assay: Neurite growth from embryoid bodies on 2D ECM-coated substrates; type: cell-based, mouse
Protocol: 4. Neurite Growth Measurements. After day 9 of differentiation, EBs were plated on either collagen I or Matrigel™ coated dishes in complete neural differentiation medium. […] Live samples were imaged on days 10-14 using an inverted fluorescent microscope for 2D cultures (IX81, Olympus) or a confocal microscope for 3D tissue rings (LSM710, Zeiss). The NeuronJ plug-in (ImageScience) for ImageJ was used to measure neurite growth distances (FIG. 17).
When allowed to adhere to natural ECM substrates such as collagen I13A and Matrigel™ (FIG. 13b and FIG. 19b), EBs containing MNs attached readily and extended neurites across the gels. Neurites grew 417.5±154.8 and 999.1+356.9 μm after 4 days of attachment (propagating at nearly linear rates of 88.6 and 264.8 μm day^−1) on collagen I and Matrigel™ surfaces, respectively (FIG. 13c). Similarly, EBs adhered to (and extended neurites across) the surface of 2D layers of differentiated C2C12s (FIG. 13d and FIG. 19c). After 5 days of co-culture, we identified clusters of post-synaptic acetylcholine receptors (visualized with fluorescently-conjugated α-BTX, which binds to a subunit of AChR) near the termination of neurite extensions on myotubes (FIG. 13e).

[1] = test system: MNs in multi-layered tissue rings; assay: Chemical stimulation of motor neurons in multi-layered tissue rings (muscle contraction tracked by video); type: cell-based, mouse; conditions: for frequency of muscle twitching / average displacement: day 9 after co-culture; for effect on glutamate-induced muscle contractions: 25 μM curare added after glutamate stimulation
Protocol: To stimulate motor neurons in tissue rings, glutamate was added to cell culture medium in a bath application of either 200 μM or 400 μM, as noted. Tissues were then transferred to fresh medium. After chemical stimulation, the nicotinic AChR antagonist curare was added to cell culture medium in a bath application of 25 μM. Tissues were then rinsed in PBS and transferred to fresh medium.
Muscle contraction within tissue rings was captured using a digital camera on a stereomicroscope with a capture rate of 5-10 frames s^−1. Image sequences were exported to .avi files. A custom Matlab script was used to calculate x-y displacement of user-specified regions of interest using normalized 2D cross-correlation, as described previously^3.
On day 9 after co-culture, we chemically stimulated MNs by adding glutamate. Multi-layered tissue rings were first subjected to a bath application of 200 μM glutamate in complete neural differentiation medium. Through video recordings, we observed that local muscle contraction began in response to chemical stimulation of MNs (FIG. 16d). When we increased the glutamate concentration from 200 to 400 μM, the frequency of muscle twitching increased from 1.08 to 1.33 contractions sec^−1, while the average displacement decreased from 6.3±0 to 4.4±0.2 μm per twitch (FIG. 16e).

“collagen I: natural ECM substrate; collagen I-coated dishes from Gibco” was tested, and the “rate of neurite propagation (nearly linear)” value (EBs containing MNs; EBs attached to the coated surface, over 4 days) was 88.6 μm day^−1 and the neurite growth (EBs containing MNs; after 4 days of attachment of EBs to the coated surface) was 417.5±154.8 μm.

In the case of `N[C@@H](CCC(=O)O)C(=O)O` [glutamate, L-glutamic acid], the frequency of contraction ([1]; 200 μM glutamate (FIG. 16e, mean values)) is reported as 1.08 contractions/s, the “frequency of muscle twitching” value ([1]; 200 μM glutamate bath application) is reported as 1.08 contractions sec^−1 and the average displacement ([1]; 200 μM glutamate) is reported as 6.3±0 μm per twitch. For the same compound, the frequency of contraction ([1]; 400 μM glutamate (FIG. 16e, mean values)) was 1.33 contractions/s, the “frequency of muscle twitching” value ([1]; 400 μM glutamate bath application) was 1.33 contractions sec^−1 and the average displacement ([1]; 400 μM glutamate) was 4.4±0.2 μm per twitch. The “dependence of contraction frequency on concentration” value ([1]; chemical stimulation of MNs, 200 and 400 μM glutamate) was “frequency of contraction increasing with glutamate concentration”.

With “(+)-tubocurarine chloride hydrochloride pentahydrate [curare]” the “frequency of contraction after addition” value ([1]; 25 μM curare (FIG. 16e)) was 0 observed contractions, the “effect on glutamate-induced muscle contractions” value [1] was “halted the contractions; also recorded: terminated the contractions” and the “effect on glutamate-induced muscle contractions” value ([1]; listed as tubocurarine chloride (curare)) was “halted the contractions”.
